Laboratory results published in PubChem BioAssay (NCI).
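These data come from cells grown in 96-well plates and exposed to compound for 48 hours at five concentrations. GI50 marks 50% less growth. The concentration for full growth arrest is given as TGI.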

Key:
Test in all cases: growth of human tumour cells (NCI), 48 h
NCI-H522 lung = test system: NCI-H522 lung
786-0 renal = test system: 786-0 renal
CAKI-1 renal = test system: CAKI-1 renal
A549 NSCLC = test system: A549 NSCLC
ACHN renal = test system: ACHN renal
TK-10 renal = test system: TK-10 renal
HCT-116 colon = test system: HCT-116 colon
UACC-62 melanoma = test system: UACC-62 melanoma
M14 melanoma = test system: M14 melanoma

SMILES | GI50 (NCI-H522 lung) | TGI (NCI-H522 lung) | GI50 (786-0 renal) | TGI (786-0 renal) | GI50 (CAKI-1 renal) | TGI (CAKI-1 renal) | GI50 (A549 NSCLC) | TGI (A549 NSCLC) | GI50 (ACHN renal) | TGI (ACHN renal) | GI50 (TK-10 renal) | TGI (TK-10 renal) | GI50 (HCT-116 colon) | TGI (HCT-116 colon) | GI50 (UACC-62 melanoma) | TGI (UACC-62 melanoma) | GI50 (M14 melanoma) | TGI (M14 melanoma)
O=C(Nc1nc(-c2ccc(Cl)cc2)cs1)c1ccc(O)c(O)c1 | 1.8 µM | 9.97 µM | 4.07 µM | 15.3 µM | 3.02 µM | 10.9 µM | 2.91 µM | 14.3 µM | 3.24 µM | 12.1 µM | 2.87 µM | 9.98 µM | 3.71 µM | 14.3 µM | 4.24 µM | 18.1 µM | 4.87 µM | 20.5 µM
C/C(=N\[N+](C)(C)C)C(c1ccccc1)C1(c2ccccc2)C(c2ccccc2)=C1c1ccccc1 (centres undefined) |  | > 100 µM |  | > 100 µM |  | > 100 µM |  | > 100 µM |  | > 100 µM |  | > 100 µM |  | > 100 µM |  | > 100 µM |  | > 100 µM
O=C1CC(c2ccccc2)NCN1 (centres undefined) |  | > 100 µM |  | > 100 µM |  | > 100 µM |  | > 100 µM |  | > 100 µM |  | > 100 µM |  | > 100 µM |  | > 100 µM |  | > 100 µM
CCOC(=O)C(=O)Nc1ccc([N+](=O)[O-])cc1C#N |  | > 100 µM |  | > 100 µM |  | > 100 µM |  | > 100 µM |  | > 100 µM |  | > 100 µM |  | > 100 µM |  | > 100 µM |  | > 100 µM
COC1=CC(C)C2C[C@H]3O[C@H](O)C[C@H]4C(C)C(=O)C(O)C([C@@]2(C)C1=O)[C@@]34C (some centres undefined) |  | > 100 µM |  | > 100 µM |  | > 100 µM |  | > 100 µM |  | > 100 µM |  | > 100 µM |  | > 100 µM |  | > 100 µM |  | > 100 µM
NC1=NN(c2ccccc2)C(=O)C1C(=O)C(=O)Nc1cccc(C(F)(F)F)c1 (centres undefined) |  | > 100 µM |  | > 100 µM |  | > 100 µM |  | > 100 µM |  | > 100 µM |  | > 100 µM |  | > 100 µM |  | > 100 µM |  | > 100 µM
CC(=O)[CH-]C(C)=O.CC(=O)[CH-]C(C)=O.CC(=O)[CH-]C(C)=O.[Cl-].[Hf+4] | > 100 µM | > 100 µM | > 100 µM | > 100 µM | > 100 µM | > 100 µM | > 100 µM | > 100 µM | > 100 µM | > 100 µM | > 100 µM | > 100 µM | > 100 µM | > 100 µM | > 100 µM | > 100 µM | > 100 µM | > 100 µM
O[C@H]1[C@H]2[C@H](O)CCCN2C[C@H]1O |  | > 100 µM |  | > 100 µM |  | > 100 µM |  | > 100 µM |  | > 100 µM |  | > 100 µM |  | > 100 µM |  | > 100 µM |  | > 100 µM
CCN(CC)CCCN1C(=O)c2c(c(C)c3c(oc4cc(O)ccc43)c2C)C1=O | 1.84 µM | 3.66 µM | 1.8 µM | 3.43 µM | 1.62 µM | 3.05 µM | 1.85 µM | 3.54 µM | 1.68 µM | 3.05 µM | 1.77 µM | 3.28 µM | 1.62 µM | 3.11 µM | 1.92 µM | 3.44 µM | 1.8 µM | 3.28 µM
C/C=C/CP(=O)(c1ccccc1)c1ccccc1 |  | > 100 µM |  | > 100 µM |  |  |  | > 100 µM |  | > 100 µM |  | > 100 µM |  | > 100 µM |  | > 100 µM |  | > 100 µM
NC(=S)N/N=C1\C(=O)N(c2cccc([N+](=O)[O-])c2)C(=O)C1C(=O)Nc1cccc([N+](=O)[O-])c1 (centres undefined) |  | > 100 µM |  | > 100 µM |  | > 100 µM |  | > 100 µM |  | > 100 µM |  | > 100 µM |  | > 100 µM |  | > 100 µM |  | > 100 µM
O=C(Nc1ccc(N=Nc2ccccc2)cc1)Sc1ccccc1C(=O)O |  | > 100 µM |  | > 100 µM |  | > 100 µM |  | > 100 µM |  | > 100 µM |  | > 100 µM |  | > 100 µM |  | > 100 µM |  | > 100 µM
CC(=O)Oc1cc2c(=O)oc3c(OC(C)=O)c(OC(C)=O)c(OC(C)=O)c4c(=O)oc(c1OC(C)=O)c2c34 |  | > 100 µM |  | > 100 µM |  | > 100 µM |  | > 100 µM |  | > 100 µM |  | > 100 µM |  | 52.6 µM |  | > 100 µM |  | > 100 µM
N#CC(c1ccc(Cl)cc1)c1cccc(Cl)n1 (centres undefined) |  | > 100 µM |  | > 100 µM |  | > 100 µM |  | > 100 µM |  | > 100 µM |  | > 100 µM |  |  |  | > 100 µM |  | > 100 µM
Cc1ccc(C2=NN(C)COC2C(F)(F)F)cc1 (centres undefined) |  | > 100 µM |  | > 100 µM |  | > 100 µM |  | > 100 µM |  | > 100 µM |  |  |  | > 100 µM |  | > 100 µM |  | > 100 µM
COc1ccc(C2c3cc4c(cc3OC(O)(CO)C2C(=O)O)OCO4)c(OC)c1OC (centres undefined) (tested in a mixture with another compound) |  |  |  | > 100 µM |  | > 100 µM |  | > 100 µM |  | > 100 µM |  | > 100 µM |  | > 100 µM |  | > 100 µM |  | > 100 µM
CCC12CC[C@H](C#N)N3CCc4c(n(c5ccccc45)C(=O)C1)C32 (some centres undefined) |  |  |  | 34.1 µM |  | 34.3 µM |  | 61.3 µM |  |  |  | 46.8 µM |  | 26.8 µM |  | 33.4 µM |  | 44.9 µM
